Source: ChEMBL document CHEMBL3991601, “The target landscape of clinical kinase drugs” (Science, 2017)
Active and inactive are the calls of the source.

What was measured:
[1] = molecular target: Atypical kinase COQ8A, mitochondrial (Homo sapiens, UniProt Q8NI60)
[2] = molecular target: T1, ATP-dependent RNA helicase DHX30 (Homo sapiens, UniProt Q7L2E3)
T1 sequence (Q7L2E3 whole entry): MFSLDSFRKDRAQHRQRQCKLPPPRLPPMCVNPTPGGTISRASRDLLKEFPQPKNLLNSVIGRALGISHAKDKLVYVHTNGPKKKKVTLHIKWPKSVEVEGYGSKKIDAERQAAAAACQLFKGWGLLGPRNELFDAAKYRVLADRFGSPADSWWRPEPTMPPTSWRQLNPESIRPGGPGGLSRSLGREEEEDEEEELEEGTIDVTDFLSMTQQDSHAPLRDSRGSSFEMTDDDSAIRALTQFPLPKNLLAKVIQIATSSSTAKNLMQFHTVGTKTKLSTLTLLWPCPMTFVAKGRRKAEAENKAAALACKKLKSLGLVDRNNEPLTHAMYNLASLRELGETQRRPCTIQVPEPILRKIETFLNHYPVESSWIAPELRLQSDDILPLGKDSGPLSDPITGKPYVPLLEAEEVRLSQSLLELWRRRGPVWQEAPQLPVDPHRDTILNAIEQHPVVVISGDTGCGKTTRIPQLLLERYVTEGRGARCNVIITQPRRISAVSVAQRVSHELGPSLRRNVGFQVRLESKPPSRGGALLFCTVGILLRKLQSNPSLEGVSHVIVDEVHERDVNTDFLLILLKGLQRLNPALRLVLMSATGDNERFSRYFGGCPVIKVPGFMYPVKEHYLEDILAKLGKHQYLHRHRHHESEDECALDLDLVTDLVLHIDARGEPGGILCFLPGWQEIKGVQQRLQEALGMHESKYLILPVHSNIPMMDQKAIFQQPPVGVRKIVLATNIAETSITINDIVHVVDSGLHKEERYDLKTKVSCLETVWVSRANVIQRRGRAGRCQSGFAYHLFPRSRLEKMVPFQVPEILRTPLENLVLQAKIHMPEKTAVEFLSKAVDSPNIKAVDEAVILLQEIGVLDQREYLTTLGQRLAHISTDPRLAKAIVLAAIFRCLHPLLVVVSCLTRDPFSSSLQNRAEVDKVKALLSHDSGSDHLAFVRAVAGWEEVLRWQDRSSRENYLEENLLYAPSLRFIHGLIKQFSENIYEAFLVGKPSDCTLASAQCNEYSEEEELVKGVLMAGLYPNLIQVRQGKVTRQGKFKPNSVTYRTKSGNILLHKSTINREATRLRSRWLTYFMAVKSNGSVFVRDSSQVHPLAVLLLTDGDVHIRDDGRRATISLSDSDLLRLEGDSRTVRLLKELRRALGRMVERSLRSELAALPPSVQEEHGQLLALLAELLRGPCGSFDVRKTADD

Scaffold protein ILK = molecular target: T2, Scaffold protein ILK (Homo sapiens, UniProt Q13418)
T2 sequence (Q13418 whole entry): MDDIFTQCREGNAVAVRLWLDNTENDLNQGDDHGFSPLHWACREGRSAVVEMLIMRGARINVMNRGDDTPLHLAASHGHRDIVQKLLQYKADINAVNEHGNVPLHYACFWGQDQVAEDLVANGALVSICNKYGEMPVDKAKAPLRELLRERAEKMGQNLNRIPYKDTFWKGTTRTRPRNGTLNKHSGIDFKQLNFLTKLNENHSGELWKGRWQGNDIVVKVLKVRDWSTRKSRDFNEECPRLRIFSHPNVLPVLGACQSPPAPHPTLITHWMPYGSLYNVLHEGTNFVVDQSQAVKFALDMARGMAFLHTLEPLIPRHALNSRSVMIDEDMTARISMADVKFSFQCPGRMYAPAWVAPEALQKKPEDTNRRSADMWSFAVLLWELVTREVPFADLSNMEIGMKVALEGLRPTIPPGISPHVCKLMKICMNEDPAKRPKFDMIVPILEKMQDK

[3] = molecular target: T3, Serine/threonine-protein kinase TAO2 (Homo sapiens, UniProt Q9UL54)
T3 sequence (Q9UL54 whole entry): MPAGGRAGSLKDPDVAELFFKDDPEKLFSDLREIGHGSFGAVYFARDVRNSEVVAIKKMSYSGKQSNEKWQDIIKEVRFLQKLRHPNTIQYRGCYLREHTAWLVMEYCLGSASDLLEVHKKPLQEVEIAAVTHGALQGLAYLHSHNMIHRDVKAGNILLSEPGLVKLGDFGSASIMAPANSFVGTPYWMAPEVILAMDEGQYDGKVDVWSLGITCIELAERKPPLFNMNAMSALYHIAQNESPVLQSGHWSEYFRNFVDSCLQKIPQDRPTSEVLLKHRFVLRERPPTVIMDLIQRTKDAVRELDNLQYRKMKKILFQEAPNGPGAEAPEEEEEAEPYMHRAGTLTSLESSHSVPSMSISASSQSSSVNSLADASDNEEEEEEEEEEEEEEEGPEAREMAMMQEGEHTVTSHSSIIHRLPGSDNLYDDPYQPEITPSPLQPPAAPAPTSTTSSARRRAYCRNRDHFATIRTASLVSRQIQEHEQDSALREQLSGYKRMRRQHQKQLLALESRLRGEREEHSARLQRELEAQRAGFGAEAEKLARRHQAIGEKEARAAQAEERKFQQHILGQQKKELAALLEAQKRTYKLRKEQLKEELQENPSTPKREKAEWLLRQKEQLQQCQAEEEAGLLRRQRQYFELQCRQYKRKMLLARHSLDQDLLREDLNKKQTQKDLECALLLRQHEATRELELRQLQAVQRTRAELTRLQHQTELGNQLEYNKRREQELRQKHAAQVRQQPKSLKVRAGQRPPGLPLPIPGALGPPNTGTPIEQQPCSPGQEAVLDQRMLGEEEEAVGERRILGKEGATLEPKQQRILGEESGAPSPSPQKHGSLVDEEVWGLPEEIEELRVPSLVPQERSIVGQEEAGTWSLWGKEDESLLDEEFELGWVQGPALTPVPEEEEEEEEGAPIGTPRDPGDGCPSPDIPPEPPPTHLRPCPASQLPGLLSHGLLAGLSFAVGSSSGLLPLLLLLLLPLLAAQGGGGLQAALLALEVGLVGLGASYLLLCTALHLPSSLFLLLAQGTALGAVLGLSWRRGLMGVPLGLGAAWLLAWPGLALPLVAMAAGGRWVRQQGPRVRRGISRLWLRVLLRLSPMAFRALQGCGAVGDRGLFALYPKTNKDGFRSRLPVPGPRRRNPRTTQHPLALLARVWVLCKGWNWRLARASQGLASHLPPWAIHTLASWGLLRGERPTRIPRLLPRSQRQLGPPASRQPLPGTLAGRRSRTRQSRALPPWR

[4] = molecular target: cAMP-dependent protein kinase type II-alpha regulatory subunit (Homo sapiens, UniProt P13861)
Chain of cAMP-dependent protein kinase type II-alpha regulatory subunit (P13861 whole entry): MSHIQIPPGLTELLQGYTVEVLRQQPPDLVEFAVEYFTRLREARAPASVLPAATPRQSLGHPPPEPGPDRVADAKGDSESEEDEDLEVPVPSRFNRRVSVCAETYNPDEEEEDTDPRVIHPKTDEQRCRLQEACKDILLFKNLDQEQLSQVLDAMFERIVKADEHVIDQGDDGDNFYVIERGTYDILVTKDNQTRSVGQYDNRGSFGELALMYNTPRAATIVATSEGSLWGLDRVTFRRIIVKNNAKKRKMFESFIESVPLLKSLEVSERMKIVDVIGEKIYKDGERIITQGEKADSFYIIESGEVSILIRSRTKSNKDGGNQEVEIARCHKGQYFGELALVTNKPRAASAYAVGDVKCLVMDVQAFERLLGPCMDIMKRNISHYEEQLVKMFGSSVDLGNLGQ

[5] = molecular target: Rho-associated protein kinase 1 (Homo sapiens, UniProt Q13464)
Chain of Rho-associated protein kinase 1 (Q13464 whole entry): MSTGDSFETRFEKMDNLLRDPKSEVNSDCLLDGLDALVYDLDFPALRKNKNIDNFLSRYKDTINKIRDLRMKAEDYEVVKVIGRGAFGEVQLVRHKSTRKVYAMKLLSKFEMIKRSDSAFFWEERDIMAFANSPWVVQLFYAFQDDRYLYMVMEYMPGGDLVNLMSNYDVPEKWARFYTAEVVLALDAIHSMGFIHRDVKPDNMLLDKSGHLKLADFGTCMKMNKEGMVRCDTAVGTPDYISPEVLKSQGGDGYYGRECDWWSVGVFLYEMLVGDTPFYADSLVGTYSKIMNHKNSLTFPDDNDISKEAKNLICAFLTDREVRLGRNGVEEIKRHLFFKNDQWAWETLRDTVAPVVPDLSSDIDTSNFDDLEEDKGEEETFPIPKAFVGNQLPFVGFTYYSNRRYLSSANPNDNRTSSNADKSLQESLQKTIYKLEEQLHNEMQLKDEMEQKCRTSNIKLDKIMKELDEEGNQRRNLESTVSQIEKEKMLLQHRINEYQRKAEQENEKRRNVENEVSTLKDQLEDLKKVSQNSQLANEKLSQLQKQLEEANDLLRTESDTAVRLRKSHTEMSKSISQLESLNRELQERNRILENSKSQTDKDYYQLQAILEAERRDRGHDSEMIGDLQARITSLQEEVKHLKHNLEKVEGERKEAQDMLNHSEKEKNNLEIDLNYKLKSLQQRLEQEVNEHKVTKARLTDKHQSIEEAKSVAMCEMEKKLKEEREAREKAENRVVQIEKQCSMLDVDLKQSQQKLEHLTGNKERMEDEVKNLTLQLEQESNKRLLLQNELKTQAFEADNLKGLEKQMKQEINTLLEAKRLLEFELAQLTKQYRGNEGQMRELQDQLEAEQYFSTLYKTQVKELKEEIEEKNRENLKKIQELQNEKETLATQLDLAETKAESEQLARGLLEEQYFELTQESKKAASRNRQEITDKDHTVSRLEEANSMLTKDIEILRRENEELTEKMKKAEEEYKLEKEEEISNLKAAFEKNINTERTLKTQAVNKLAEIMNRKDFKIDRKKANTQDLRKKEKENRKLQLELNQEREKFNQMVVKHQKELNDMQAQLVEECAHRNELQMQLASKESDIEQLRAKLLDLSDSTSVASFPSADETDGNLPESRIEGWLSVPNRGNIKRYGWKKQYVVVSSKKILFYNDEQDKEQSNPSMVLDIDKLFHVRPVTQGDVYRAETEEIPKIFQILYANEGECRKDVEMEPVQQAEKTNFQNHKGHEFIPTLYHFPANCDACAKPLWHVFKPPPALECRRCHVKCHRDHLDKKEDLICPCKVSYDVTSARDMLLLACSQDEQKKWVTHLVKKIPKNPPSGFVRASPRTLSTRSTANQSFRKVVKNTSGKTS

Myosin-14 = Myosin-14 (Homo sapiens, UniProt Q7Z406)
Chain of Myosin-14 (Q7Z406 whole entry): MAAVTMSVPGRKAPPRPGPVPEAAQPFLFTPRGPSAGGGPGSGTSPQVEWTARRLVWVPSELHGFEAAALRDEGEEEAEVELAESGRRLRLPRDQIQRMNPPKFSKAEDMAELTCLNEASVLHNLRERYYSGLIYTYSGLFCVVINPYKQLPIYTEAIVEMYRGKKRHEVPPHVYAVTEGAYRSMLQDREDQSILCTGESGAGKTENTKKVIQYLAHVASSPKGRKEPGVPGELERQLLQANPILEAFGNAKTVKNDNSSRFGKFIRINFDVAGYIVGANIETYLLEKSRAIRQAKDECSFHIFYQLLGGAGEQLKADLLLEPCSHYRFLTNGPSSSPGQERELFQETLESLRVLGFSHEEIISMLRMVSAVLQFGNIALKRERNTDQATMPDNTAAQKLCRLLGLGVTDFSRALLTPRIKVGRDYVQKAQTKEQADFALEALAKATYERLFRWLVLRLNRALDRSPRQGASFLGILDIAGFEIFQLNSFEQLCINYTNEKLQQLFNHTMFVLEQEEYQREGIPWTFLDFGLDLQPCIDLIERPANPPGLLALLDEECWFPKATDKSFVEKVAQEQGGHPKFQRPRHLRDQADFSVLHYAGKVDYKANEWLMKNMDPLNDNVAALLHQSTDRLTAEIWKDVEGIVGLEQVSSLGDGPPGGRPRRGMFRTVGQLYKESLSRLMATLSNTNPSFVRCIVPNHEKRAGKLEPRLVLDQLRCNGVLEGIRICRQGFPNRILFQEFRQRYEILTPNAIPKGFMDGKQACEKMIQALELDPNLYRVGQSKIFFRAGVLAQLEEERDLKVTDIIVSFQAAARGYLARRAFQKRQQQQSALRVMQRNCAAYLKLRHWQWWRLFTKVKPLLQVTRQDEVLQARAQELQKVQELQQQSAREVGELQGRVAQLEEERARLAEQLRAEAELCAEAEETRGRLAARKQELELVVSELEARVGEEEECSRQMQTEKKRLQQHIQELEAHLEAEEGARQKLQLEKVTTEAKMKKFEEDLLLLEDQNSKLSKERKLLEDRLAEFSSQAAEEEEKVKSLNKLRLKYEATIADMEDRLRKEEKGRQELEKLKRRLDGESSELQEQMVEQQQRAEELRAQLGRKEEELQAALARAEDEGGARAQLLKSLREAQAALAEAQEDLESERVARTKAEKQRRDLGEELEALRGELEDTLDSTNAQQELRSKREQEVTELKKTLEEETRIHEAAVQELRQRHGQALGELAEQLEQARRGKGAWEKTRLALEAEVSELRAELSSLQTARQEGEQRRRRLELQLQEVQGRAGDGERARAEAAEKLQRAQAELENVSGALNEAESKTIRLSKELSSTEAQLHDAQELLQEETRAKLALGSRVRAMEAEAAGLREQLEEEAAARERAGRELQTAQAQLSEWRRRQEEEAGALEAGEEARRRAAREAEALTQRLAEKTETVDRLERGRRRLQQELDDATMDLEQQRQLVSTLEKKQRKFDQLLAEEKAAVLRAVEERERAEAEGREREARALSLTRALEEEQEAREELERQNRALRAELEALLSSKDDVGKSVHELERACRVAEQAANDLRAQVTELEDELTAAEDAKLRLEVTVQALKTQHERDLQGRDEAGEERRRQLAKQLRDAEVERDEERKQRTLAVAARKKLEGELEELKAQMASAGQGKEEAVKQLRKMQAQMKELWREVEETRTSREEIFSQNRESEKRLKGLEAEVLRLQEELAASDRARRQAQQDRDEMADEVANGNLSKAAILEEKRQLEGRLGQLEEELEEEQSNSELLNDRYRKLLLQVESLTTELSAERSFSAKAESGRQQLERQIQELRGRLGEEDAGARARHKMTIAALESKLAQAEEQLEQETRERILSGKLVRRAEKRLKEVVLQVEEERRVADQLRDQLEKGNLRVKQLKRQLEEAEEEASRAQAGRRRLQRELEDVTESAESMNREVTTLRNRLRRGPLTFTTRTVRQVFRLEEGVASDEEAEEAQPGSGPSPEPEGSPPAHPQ
Further: in the data inactive means no Kd found up to 30 µM.

Chain of Atypical kinase COQ8A, mitochondrial (Q8NI60 whole entry): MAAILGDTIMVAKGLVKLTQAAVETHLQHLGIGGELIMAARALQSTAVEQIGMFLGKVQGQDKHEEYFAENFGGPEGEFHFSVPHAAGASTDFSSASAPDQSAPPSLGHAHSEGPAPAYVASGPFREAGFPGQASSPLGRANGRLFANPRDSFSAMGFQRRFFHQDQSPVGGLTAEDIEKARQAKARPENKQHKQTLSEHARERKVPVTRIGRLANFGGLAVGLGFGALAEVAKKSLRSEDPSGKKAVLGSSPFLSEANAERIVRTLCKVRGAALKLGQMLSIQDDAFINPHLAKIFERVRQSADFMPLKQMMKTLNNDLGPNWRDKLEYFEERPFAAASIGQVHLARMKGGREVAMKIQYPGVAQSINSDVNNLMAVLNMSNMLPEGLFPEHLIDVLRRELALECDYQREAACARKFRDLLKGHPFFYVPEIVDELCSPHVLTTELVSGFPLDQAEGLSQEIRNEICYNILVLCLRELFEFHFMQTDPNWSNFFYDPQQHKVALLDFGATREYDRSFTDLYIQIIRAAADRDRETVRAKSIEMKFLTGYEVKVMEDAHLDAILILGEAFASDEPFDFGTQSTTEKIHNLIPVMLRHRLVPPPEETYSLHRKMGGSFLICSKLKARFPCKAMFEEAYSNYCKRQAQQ

| SMILES | Kd [1] | Kd [2] | Kd (Scaffold protein ILK) | Kd [3] | Kd [4] | Kd [5] | Kd (Myosin-14) |
| --- | --- | --- | --- | --- | --- | --- | --- |
| Cc1cc([C@@H](C)Nc2ccccc2C(=O)O)c2nc(N3CCOCC3)cc(=O)n2c1 [AZD-6482] | > 30 µM (inactive) | > 30 µM (inactive) | > 30 µM (inactive) | > 30 µM (inactive) | > 30 µM (inactive) | > 30 µM (inactive) | > 30 µM (inactive) |
| CCS(=O)(=O)N1CC(CC#N)(n2cc(-c3ncnc4[nH]ccc34)cn2)C1 [BARICITINIB] | > 30 µM (inactive) | > 30 µM (inactive) | > 30 µM (inactive) | > 30 µM (inactive) | > 30 µM (inactive) | 0.482 µM (active) | > 30 µM (inactive) |
| CNS(=O)(=O)Nc1nccc(Cc2c(C)c3ccc(Oc4ncccn4)cc3oc2=O)c1F [AVUTOMETINIB] | > 30 µM (inactive) | > 30 µM (inactive) | > 30 µM (inactive) | > 30 µM (inactive) | > 30 µM (inactive) | > 30 µM (inactive) | > 30 µM (inactive) |
| Cc1cc2c(F)c(Oc3ncnn4cc(OC[C@@H](C)OC(=O)[C@H](C)N)c(C)c34)ccc2[nH]1 [BRIVANIB ALANINATE] | > 30 µM (inactive) | > 30 µM (inactive) | > 30 µM (inactive) | > 30 µM (inactive) | > 30 µM (inactive) | > 30 µM (inactive) | > 30 µM (inactive) |
| CCN1CCN(Cc2ccc(-c3cc4c(N[C@H](C)c5ccccc5)ncnc4[nH]3)cc2)CC1 [AEE-788] | > 30 µM (inactive) | > 30 µM (inactive) | > 30 µM (inactive) | > 30 µM (inactive) | > 30 µM (inactive) | > 30 µM (inactive) | > 30 µM (inactive) |
| CN1CC[C@@H](c2c(O)cc(O)c3c(=O)cc(-c4ccccc4Cl)oc23)[C@@H]1CO | > 30 µM (inactive) | > 30 µM (inactive) | > 30 µM (inactive) | > 30 µM (inactive) | > 30 µM (inactive) | > 30 µM (inactive) | > 30 µM (inactive) |
| COC(=O)N[C@@H](C)CNc1nccc(-c2cn(C(C)C)nc2-c2cc(Cl)cc(NS(C)(=O)=O)c2F)n1 [ENCORAFENIB] | > 30 µM (inactive) | > 30 µM (inactive) | > 30 µM (inactive) | > 30 µM (inactive) | > 30 µM (inactive) | > 30 µM (inactive) | > 30 µM (inactive) |
| N[C@@H]1CCCN(c2c(/C=C3\SC(=O)NC3=O)cccc2-c2ccccc2)C1 | > 30 µM (inactive) | > 30 µM (inactive) | > 30 µM (inactive) | > 30 µM (inactive) | > 30 µM (inactive) | > 30 µM (inactive) | > 30 µM (inactive) |
| Cn1ncc(Cl)c1-c1cc(C(=O)N[C@H](CN)Cc2cccc(F)c2)sc1Cl [AFURESERTIB] | > 30 µM (inactive) | > 30 µM (inactive) | > 30 µM (inactive) | > 30 µM (inactive) | > 30 µM (inactive) | 2.14 µM (active) | > 30 µM (inactive) |
| O=C(c1ccc(F)c(F)c1Nc1ccc(I)cc1F)N1CC(O)([C@@H]2CCCCN2)C1 [COBIMETINIB] | > 30 µM (inactive) | > 30 µM (inactive) | > 30 µM (inactive) | > 30 µM (inactive) | > 30 µM (inactive) | > 30 µM (inactive) | > 30 µM (inactive) |

Now from value to compound:

| Kd [1] | Kd [2] | Kd (Scaffold protein ILK) | Kd [3] | Kd [4] | Kd [5] | Kd (Myosin-14) | SMILES |
| --- | --- | --- | --- | --- | --- | --- | --- |
| > 30 µM (inactive) | > 30 µM (inactive) | > 30 µM (inactive) | > 30 µM (inactive) | > 30 µM (inactive) | > 30 µM (inactive) | > 30 µM (inactive) | CNC(=O)c1cc(Oc2ccc(NC(=O)Nc3ccc(Cl)c(C(F)(F)F)c3)c(F)c2)ccn1 [REGORAFENIB] |
| > 30 µM (inactive) | > 30 µM (inactive) | > 30 µM (inactive) | > 30 µM (inactive) | > 30 µM (inactive) | > 30 µM (inactive) | > 30 µM (inactive) | CC(=O)Nc1cccc(-n2c(=O)n(C3CC3)c(=O)c3c(Nc4ccc(I)cc4F)n(C)c(=O)c(C)c32)c1 [TRAMETINIB] |
| > 30 µM (inactive) | > 30 µM (inactive) | > 30 µM (inactive) | > 30 µM (inactive) | > 30 µM (inactive) | > 30 µM (inactive) | > 30 µM (inactive) | O=C1NC(=O)/C(=C/c2ccc3nccc(-c4ccncc4)c3c2)S1 [GSK-1059615] |
| > 30 µM (inactive) | > 30 µM (inactive) | > 30 µM (inactive) | > 30 µM (inactive) | > 30 µM (inactive) | > 30 µM (inactive) | > 30 µM (inactive) | Cn1cc(-c2ccc3nnc(C(F)(F)c4ccc5ncccc5c4)n3n2)cn1 [JNJ-38877605] |
| > 30 µM (inactive) | > 30 µM (inactive) | > 30 µM (inactive) | > 30 µM (inactive) | > 30 µM (inactive) | > 30 µM (inactive) | > 30 µM (inactive) | COCCNCc1ccc(-c2cc3nccc(Oc4ccc(NC(=S)NC(=O)Cc5ccc(F)cc5)cc4F)c3s2)nc1 [GLESATINIB] |
| > 30 µM (inactive) | > 30 µM (inactive) | > 30 µM (inactive) | > 30 µM (inactive) | > 30 µM (inactive) | > 30 µM (inactive) | > 30 µM (inactive) | CC[C@@H]1C(=O)N(C)c2cnc(Nc3ccc(C(=O)N[C@H]4CC[C@H](N5CCN(CC6CC6)CC5)CC4)cc3OC)nc2N1C(C)C [VOLASERTIB] |
| > 30 µM (inactive) | > 30 µM (inactive) | > 30 µM (inactive) | > 30 µM (inactive) | > 30 µM (inactive) | > 30 µM (inactive) | > 30 µM (inactive) | C[C@@H]1CN(Cc2ccc(F)cc2)[C@@H](C)CN1C(=O)c1cc2c(C(=O)C(=O)N(C)C)cn(C)c2cc1Cl [TALMAPIMOD] |
